Measurements published in ChEMBL document CHEMBL4828703, “Structure-activity relationship study of THZ531 derivatives enables the discovery of BSJ-01-175 as a dual CDK12/13 covalent inhibitor with efficacy in Ewing sarcoma” (Eur J Med Chem, 2021).
Active and inactive are the calls of the source. No cut-off for these calls is given here.

Experiments:
[1] = Downregulation of RNA polymerase 2 CTD phosphorylation at Ser7 residue in human Jurkat cells at 1 uM incubated for 6 hrs by immunoblotting analysis; type: functional
[2] = Toxicity in nude mouse xenografted with human TC71 cells assessed as body weight loss at 10 mg/kg, ip for 21 days; type: organism-based; details: in vivo, 504 h, time 21 day
[3] = target: Cyclin-dependent kinase 7 (Homo sapiens) (UniProt P50613); assay: Inhibition of ADP(ATP)-biotin probe binding to CDK7 in human Kelly cells at 1 uM incubated for 6 hrs by KiNativ profiling analysis; type: cell-based
[4] = target: STE20-related kinase adapter protein beta (Homo sapiens) (UniProt Q9C0K7); assay: Inhibition of ADP(ATP)-biotin probe binding to STLK6 in human Kelly cells at 1 uM incubated for 6 hrs by KiNativ profiling analysis; type: cell-based
[5] = target: DNA-dependent protein kinase catalytic subunit (Homo sapiens, UniProt P78527); assay: Inhibition of ADP(ATP)-biotin probe binding to DNAPK in human Kelly cells at 1 uM incubated for 6 hrs by KiNativ profiling analysis; type: cell-based
[6] = Downregulation of RNA polymerase 2 in human Jurkat cells at 5 uM measured after 6 hrs by immunoblotting analysis; type: functional
Cyclin-K (Homo sapiens) = Cyclin-K (Homo sapiens) (UniProt O75909); assay: Binding affinity to CyclinK in CDK12/CyclinK complex (unknown origin) at 10-fold excess concentration incubated for 1 hr by LC-MS analysis
[7] = target: Ribosomal protein S6 kinase alpha-4 (Homo sapiens) (UniProt O75676); assay: Inhibition of ADP(ATP)-biotin probe binding to MSK2 domain 1 in human Kelly cells at 1 uM incubated for 6 hrs by KiNativ profiling analysis; type: cell-based
[8] = target: Ribosomal protein S6 kinase alpha-3 (Homo sapiens, UniProt P51812); assay: Inhibition of human RSK2 by Invitrogen ADAPTA or Z'LYTE biochemical kinase assay
[9] = target: Cyclin-dependent kinase 12 (Homo sapiens) (UniProt Q9NYV4); assay: Inhibition of ADP(ATP)-biotin probe binding to CDK12 in human Kelly cells at 1 uM incubated for 6 hrs by KiNativ profiling analysis; type: cell-based
[10] = Cmax in Swiss albino mouse at 3 mg/kg, iv measured upto 24 hrs by LC-MS/MS analysis; type: ADME, organism-based; design: route intravenous, dose 3 mg/kg, time <=24; details: in vivo
[11] = Half life in Swiss albino mouse at 3 mg/kg, iv measured upto 24 hrs by LC-MS/MS analysis; type: ADME, organism-based; details: in vivo
[12] = target: T1, Cyclin-dependent kinase 12/13 (Homo sapiens) (UniProt Q14004+Q9NYV4); assay: Inhibition of CDK12/13 in human jurkat cells assessed as reduction in RNA polymerase 2 CTD phosphorylation at Ser2 residue at 0.5 uM measured after 6 hrs by immunoblotting analysis; type: cell-based
[13] = target: Cyclin-dependent kinase 13/Cyclin-K (Homo sapiens, UniProt Q14004); assay: Inhibition of human recombinant CDK13/CyclinK assessed as reduction in substrate phosphorylation using His-c-Myc as substrate preincubated with enzyme for 5 mins followed by substrate addition for 15 mins in presence of [gamma 32P-ATP] by radioactive kinase assay; type: protein-complex assay
[14] = Downregulation of RNA polymerase 2 CTD phosphorylation at Ser5 residue in human Jurkat cells at 0.5 uM incubated for 6 hrs by immunoblotting analysis; type: functional
[15] = Oral bioavailability in Swiss albino mouse at 10 mg/kg measured upto 24 hrs by LC-MS/MS analysis; type: ADME, organism-based; details: in vivo
[16] = Downregulation of RNA polymerase 2 CTD phosphorylation at Ser5 residue in human Jurkat cells at 5 uM incubated for 6 hrs by immunoblotting analysis; type: functional
[17] = Cmax in Swiss albino mouse at 10 mg/kg, po measured upto 24 hrs by LC-MS/MS analysis; type: ADME, organism-based; design: route oral, dose 10 mg/kg, time <=24; details: in vivo
[18] = Downregulation of RNA polymerase 2 CTD phosphorylation at Ser7 residue in human Jurkat cells at 5 uM incubated for 6 hrs by immunoblotting analysis; type: functional
[19] = target: Calcium/calmodulin-dependent protein kinase type IV (Homo sapiens) (UniProt Q16566); assay: Inhibition of ADP(ATP)-biotin probe binding to CaMK4 in human Kelly cells at 1 uM incubated for 6 hrs by KiNativ profiling analysis; type: cell-based
[20] = target: RAF proto-oncogene serine/threonine-protein kinase (Homo sapiens) (UniProt P04049); assay: Inhibition of ADP(ATP)-biotin probe binding to RAF1 in human Kelly cells at 1 uM incubated for 6 hrs by KiNativ profiling analysis; type: cell-based
[21] = Downregulation of RNA polymerase 2 CTD phosphorylation at Ser7 residue in human Jurkat cells at 0.5 uM incubated for 6 hrs by immunoblotting analysis; type: functional
[22] = Downregulation of RNA polymerase 2 CTD phosphorylation at Ser5 residue in human Jurkat cells at 1 uM incubated for 6 hrs by immunoblotting analysis; type: functional
[23] = Downregulation of RNA polymerase 2 CTD phosphorylation at Ser5 residue in human Jurkat cells at 2.5 uM incubated for 6 hrs by immunoblotting analysis; type: functional
CDK12/Cyclin K = CDK12/Cyclin K (Homo sapiens, UniProt Q9NYV4); assay: Inhibition of human recombinant CDK12/CyclinK assessed as reduction in substrate phosphorylation using His-c-Myc as substrate preincubated with enzyme for 5 mins followed by substrate addition for 15 mins in presence of [gamma 32P-ATP] by radioactive kinase assay; type: protein-complex assay
[24] = Downregulation of RNA polymerase 2 in human Jurkat cells at 1 uM measured after 6 hrs by immunoblotting analysis; type: functional
[25] = target: T1, Cyclin-dependent kinase 12/13 (Homo sapiens); assay: Inhibition of CDK12/13 in human jurkat cells assessed as reduction in RNA polymerase 2 CTD phosphorylation at Ser2 residue at 5 uM measured after 6 hrs by immunoblotting analysis; type: cell-based
[26] = AUClast in Swiss albino mouse at 3 mg/kg, iv measured upto 24 hrs by LC-MS/MS analysis; type: ADME, organism-based; design: route intravenous, dose 3 mg/kg, time <=24; details: in vivo
[27] = Downregulation of RNA polymerase 2 in human Jurkat cells at 2.5 uM measured after 6 hrs by immunoblotting analysis; type: functional
[28] = target: Cyclin-dependent kinase 7 (Homo sapiens) (UniProt P50613); assay: Inhibition of THZ1-biotin binding from CDK7 in human Jurkat cells at 5 uM incubated for 6 hrs by CyclinH antibody based competitive pull down assay; type: cell-based
[29] = target: Cyclin-dependent kinase 7 (Homo sapiens) (UniProt P50613); assay: Inhibition of THZ1-biotin binding from CDK7 in human Jurkat cells at 500 nM incubated for 6 hrs by CyclinH antibody based competitive pull down assay; type: cell-based
[30] = AUClast in Swiss albino mouse at 10 mg/kg, po measured upto 24 hrs by LC-MS/MS analysis; type: ADME, organism-based; design: route oral, dose 10 mg/kg, time <=24; details: in vivo
[31] = target: T1, Cyclin-dependent kinase 12/13 (Homo sapiens); assay: Inhibition of CDK12/13 in human Jurkat cells assessed as BRCA2 gene expression at 0.5 to 1 uM incubated for 4 hrs by RT-qPCR analysis; type: cell-based; design: scale not given: the % may be the effect or the level left; details: dose 0.5-1 µM
[32] = target: Cyclin-dependent kinase 12 (Homo sapiens) (UniProt Q9NYV4); assay: Covalent binding affinity to CDK12 in CDK12/CyclinK complex (unknown origin) assessed as covalent labeling of Cys1039 in gluc-protease digested CDK12 peptide 1025LASKMAPPDLPHWQDCHE1041 by CE-MS analysis
[33] = Antiproliferative activity against human TC71 cells assessed as reduction in cell viability; type: functional, cell-based; details: TC-71
[34] = target: T1, Cyclin-dependent kinase 12/13 (Homo sapiens); assay: Inhibition of THZ1-biotin binding from CDK12/13 in human Jurkat cells at 500 nM incubated for 6 hrs by CyclinK antibody based competitive pull down assay; type: cell-based

Cyclin-dependent kinase 7 (Homo sapiens), sequence (P50613 whole entry): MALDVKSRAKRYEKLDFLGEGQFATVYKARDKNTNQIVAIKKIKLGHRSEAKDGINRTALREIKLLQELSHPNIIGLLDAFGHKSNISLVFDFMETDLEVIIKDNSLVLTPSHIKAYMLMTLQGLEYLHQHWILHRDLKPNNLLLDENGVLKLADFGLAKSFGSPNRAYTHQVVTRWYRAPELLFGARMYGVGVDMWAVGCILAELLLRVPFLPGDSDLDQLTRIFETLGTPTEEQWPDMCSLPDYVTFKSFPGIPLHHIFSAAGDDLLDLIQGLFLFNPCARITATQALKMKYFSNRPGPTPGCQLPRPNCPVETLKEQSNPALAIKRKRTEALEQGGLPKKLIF
Cyclin-dependent kinase 12 (Homo sapiens), sequence (Q9NYV4 whole entry, looked up): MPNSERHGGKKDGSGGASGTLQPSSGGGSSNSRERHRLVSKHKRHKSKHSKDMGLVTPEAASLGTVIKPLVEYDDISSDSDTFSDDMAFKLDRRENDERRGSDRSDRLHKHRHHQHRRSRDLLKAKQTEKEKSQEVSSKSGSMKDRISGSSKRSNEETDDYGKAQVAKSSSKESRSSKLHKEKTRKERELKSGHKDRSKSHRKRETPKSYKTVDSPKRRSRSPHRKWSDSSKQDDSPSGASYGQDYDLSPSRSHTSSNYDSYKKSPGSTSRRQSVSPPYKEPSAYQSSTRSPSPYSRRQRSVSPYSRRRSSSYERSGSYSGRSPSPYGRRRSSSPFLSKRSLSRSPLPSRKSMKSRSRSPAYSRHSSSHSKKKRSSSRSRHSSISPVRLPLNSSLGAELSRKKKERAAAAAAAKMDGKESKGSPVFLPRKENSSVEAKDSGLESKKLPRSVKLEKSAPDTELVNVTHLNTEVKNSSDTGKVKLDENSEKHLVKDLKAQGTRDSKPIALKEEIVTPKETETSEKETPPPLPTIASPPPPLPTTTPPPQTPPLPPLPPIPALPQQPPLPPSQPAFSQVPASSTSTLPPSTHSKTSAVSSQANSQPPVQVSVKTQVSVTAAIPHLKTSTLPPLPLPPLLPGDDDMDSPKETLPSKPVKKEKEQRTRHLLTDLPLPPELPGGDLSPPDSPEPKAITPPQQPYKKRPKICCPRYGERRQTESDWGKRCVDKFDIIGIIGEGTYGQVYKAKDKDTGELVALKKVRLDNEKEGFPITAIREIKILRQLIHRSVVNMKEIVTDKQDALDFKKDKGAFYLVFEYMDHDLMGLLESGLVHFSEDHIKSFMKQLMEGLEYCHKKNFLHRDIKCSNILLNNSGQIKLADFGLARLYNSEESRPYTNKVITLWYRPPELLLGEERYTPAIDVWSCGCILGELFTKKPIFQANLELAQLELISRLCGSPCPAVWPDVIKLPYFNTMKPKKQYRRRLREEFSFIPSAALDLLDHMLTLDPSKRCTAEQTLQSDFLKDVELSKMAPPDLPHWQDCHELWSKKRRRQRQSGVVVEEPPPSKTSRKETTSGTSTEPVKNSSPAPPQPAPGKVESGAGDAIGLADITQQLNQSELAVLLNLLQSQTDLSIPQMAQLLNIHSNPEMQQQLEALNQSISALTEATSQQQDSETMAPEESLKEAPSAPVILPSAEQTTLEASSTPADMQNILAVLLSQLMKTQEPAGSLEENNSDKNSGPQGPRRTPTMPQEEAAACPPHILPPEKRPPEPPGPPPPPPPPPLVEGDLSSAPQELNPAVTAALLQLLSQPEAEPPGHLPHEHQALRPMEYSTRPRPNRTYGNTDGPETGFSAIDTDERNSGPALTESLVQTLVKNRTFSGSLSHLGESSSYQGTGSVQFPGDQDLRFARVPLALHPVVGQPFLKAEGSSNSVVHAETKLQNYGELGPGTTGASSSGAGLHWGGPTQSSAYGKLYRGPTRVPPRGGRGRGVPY
Cyclin-dependent kinase 13/Cyclin-K, sequence (Q14004 whole entry): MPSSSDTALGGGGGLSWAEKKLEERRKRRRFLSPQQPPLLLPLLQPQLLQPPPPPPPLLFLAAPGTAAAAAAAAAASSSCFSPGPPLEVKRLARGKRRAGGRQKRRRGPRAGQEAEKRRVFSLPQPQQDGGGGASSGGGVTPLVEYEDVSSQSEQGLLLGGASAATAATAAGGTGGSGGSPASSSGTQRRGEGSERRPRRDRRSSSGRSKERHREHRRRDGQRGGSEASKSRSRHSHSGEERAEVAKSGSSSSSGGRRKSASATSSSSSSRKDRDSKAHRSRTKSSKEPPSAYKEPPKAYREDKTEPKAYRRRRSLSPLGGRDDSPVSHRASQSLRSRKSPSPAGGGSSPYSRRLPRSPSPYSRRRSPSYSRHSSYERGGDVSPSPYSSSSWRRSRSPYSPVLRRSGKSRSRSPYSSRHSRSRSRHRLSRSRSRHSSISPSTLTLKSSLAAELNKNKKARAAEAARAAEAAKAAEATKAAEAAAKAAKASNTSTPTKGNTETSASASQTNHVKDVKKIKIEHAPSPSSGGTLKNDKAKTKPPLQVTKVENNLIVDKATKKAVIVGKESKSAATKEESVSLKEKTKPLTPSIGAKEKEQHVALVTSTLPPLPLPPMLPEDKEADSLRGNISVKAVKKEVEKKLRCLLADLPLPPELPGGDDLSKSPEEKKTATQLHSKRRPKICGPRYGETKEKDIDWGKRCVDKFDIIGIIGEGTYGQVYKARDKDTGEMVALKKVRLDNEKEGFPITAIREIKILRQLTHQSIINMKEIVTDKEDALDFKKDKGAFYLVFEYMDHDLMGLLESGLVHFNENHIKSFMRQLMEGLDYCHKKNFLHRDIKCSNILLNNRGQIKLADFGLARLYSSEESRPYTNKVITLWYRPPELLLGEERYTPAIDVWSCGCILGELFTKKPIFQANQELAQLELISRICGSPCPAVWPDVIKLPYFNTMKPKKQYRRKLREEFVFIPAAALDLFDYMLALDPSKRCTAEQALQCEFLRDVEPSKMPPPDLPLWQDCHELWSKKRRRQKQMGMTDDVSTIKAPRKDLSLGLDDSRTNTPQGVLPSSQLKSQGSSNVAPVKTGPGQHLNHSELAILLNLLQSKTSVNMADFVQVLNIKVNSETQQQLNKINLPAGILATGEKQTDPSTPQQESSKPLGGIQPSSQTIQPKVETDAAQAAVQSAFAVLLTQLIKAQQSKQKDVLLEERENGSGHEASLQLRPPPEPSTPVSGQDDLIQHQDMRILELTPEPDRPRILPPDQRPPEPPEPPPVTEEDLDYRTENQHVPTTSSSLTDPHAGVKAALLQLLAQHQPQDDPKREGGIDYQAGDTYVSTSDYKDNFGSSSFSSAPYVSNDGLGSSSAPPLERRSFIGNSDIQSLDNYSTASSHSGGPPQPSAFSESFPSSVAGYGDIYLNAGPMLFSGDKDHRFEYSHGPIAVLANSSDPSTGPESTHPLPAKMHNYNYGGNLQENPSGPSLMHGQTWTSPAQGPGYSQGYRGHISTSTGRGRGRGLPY
Cyclin-dependent kinase 13/Cyclin-K, sequence (O75909 whole entry, further chain): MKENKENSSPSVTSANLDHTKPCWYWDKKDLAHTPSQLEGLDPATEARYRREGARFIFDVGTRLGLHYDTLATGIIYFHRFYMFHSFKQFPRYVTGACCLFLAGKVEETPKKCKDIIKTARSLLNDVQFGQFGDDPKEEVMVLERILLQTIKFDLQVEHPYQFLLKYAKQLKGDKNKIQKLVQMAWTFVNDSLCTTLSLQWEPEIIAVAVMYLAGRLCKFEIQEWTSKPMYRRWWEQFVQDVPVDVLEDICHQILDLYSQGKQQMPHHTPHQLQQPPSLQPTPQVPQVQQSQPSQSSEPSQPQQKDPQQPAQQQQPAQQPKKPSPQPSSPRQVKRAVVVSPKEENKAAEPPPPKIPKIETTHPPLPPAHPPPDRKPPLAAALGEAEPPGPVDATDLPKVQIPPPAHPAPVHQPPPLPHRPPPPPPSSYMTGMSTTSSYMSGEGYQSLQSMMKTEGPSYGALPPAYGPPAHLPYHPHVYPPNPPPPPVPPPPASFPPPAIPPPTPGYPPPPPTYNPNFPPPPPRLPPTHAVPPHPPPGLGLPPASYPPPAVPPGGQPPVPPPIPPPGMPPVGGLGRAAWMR
Ribosomal protein S6 kinase alpha-4 (Homo sapiens), sequence (O75676 whole entry, looked up, the tested form may be a part): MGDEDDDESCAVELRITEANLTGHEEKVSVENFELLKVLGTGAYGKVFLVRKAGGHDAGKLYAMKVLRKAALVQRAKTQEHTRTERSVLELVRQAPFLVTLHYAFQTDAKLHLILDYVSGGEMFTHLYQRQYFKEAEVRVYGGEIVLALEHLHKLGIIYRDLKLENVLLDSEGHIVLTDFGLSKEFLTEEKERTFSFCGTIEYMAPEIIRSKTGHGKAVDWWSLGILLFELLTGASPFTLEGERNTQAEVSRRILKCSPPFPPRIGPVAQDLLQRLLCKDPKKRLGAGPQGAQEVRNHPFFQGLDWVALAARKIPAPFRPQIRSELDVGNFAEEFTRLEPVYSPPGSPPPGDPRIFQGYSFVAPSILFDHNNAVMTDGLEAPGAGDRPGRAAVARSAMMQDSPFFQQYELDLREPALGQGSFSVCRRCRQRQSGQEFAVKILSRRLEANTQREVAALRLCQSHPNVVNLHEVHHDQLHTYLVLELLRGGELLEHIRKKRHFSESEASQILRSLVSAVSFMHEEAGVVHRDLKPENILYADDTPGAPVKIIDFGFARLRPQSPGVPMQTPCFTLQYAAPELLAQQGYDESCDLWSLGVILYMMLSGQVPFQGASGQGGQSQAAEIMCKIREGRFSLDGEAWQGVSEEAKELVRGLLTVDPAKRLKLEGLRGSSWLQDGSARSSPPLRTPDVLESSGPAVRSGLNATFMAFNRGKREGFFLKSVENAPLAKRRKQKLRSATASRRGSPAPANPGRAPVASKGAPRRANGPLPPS
Cyclin-K (Homo sapiens), sequence (O75909 whole entry, the tested form may be a part): as the sequence (O75909 whole entry, further chain) above
CDK12/Cyclin K, sequence (O75909 whole entry): as the sequence (O75909 whole entry, further chain) above
CDK12/Cyclin K, sequence (Q9NYV4 whole entry): as the sequence (Q9NYV4 whole entry, looked up) above

Structure (SMILES): CN(C)C/C=C/C(=O)Nc1ccc(O[C@@H]2CCC[C@@H](Nc3ncc(Cl)c(-c4c[nH]c5ccccc45)n3)C2)cc1
- inhibition at 1 µM [1]: 41%
- Activity [2]: Toxic
- inhibition [3]: 39.2%
- inhibition [4]: 44.5%
- inhibition [5]: 38.3%
- inhibition at 5 µM [6]: 38%
- Activity (Cyclin-K (Homo sapiens)): inactive
- inhibition [7]: 40.3%
- IC50 [8]: 4500 nM
- inhibition [9]: 76.8%
- Cmax [10]: 1511 ng/mL
- t1/2 [11]: 2.2 h
- inhibition [12]: 45%
- IC50 [13]: 283 nM
- inhibition at 0.5 µM [14]: 0%
- F [15]: 17%
- inhibition at 5 µM [16]: 47%
- Cmax [17]: 272 ng/mL
- inhibition at 5 µM [18]: 74%
- inhibition [19]: 38.2%
- inhibition [20]: 37.8%
- inhibition at 0.5 µM [21]: 0%
- inhibition at 1 µM [22]: 32%
- inhibition at 2.5 µM [23]: 47%
- IC50 (CDK12/Cyclin K): 156 nM
- inhibition at 1 µM [24]: 13%
- inhibition [25]: 89%
- AUClast [26]: 1832 ng·h/mL
- inhibition at 2.5 µM [27]: 15%
- inhibition [28]: Active
- inhibition [29]: inactive
- AUClast [30]: 1043 ng·h/mL
- Activity [31]: 30%
- Activity [32]: Active
- IC50 [33]: 160 nM
- inhibition [34]: Active
